# In ChEMBL document CHEMBL1201862, “PubChem BioAssay data set” (2004):
# Active and inactive are the calls of the source.
# Tests used:
# [1] = target: T1, Coagulation factor XII (Homo sapiens, UniProt P00748); format: functional;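 note: activated factor XIIa alpha cleaving a fluorogenic AMC peptide substrate; inhibitor potency from loss of enzyme activity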
# T1 sequence (P00748 whole entry): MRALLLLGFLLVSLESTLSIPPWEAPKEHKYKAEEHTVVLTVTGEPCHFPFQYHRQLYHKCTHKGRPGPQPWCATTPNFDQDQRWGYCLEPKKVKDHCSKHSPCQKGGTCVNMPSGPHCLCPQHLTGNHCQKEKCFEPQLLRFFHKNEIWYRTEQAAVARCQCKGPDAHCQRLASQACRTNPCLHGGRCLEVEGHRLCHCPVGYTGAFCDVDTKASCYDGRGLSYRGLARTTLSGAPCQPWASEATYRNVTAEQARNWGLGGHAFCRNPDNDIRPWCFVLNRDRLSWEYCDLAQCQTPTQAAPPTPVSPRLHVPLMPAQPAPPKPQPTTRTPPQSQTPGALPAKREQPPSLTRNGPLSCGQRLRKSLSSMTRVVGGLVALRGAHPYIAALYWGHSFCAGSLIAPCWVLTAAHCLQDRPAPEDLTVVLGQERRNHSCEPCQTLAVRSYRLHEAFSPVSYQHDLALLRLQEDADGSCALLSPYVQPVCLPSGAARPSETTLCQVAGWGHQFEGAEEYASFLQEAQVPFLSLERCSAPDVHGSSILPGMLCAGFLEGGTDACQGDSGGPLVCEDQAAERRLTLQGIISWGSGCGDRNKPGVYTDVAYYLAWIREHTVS
# [2] = target: Cytochrome P450 2C9 (Homo sapiens, UniProt P11712)
# [3] = target: Cytochrome P450 3A4 (Homo sapiens, UniProt P08684);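 note: CYP3A4 tested as one member of a cytochrome P450 panel screen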
# [4] = target: T2, Endoribonuclease toxin MazF (Escherichia coli K-12, UniProt P0AE70); experiment: MazF toxin RNase activators, dose response, biochemical, fluorescence, single-stranded RNA substrate, uHTS hits (AID 588481); format: functional
# T2 sequence (P0AE70 whole entry): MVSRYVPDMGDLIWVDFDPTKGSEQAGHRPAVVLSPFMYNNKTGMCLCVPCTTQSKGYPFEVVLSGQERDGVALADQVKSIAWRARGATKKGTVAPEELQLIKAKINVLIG
# [5] = target: T2, Endoribonuclease toxin MazF; experiment: fluorescent RNA oligo signal without MazF, dose response, counter-screen for MazEF activator project, biochemical, fluorescence, single-stranded RNase substrate (AID 588502); format: functional
# [6] = growth suppression of PTEN-null colon cells, dose response, cell-based, HCT116 PTEN knockout (AID 1047); format: functional;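 note: HCT116 colon tumor cells with PTEN knocked out; cells exposed to compound for 60 hours before readout; potency for loss of cell viability measured by luminescence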
# [7] = growth suppression of beta-catenin-knockout colon cells, dose response, cell-based, HCT116, human colon tumor (AID 1045); format: functional;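 note: HCT116 colon tumor cells with beta catenin knocked out; cells exposed to compound for 60 hours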
# [8] = target: Melanocortin receptor 4 (Homo sapiens, UniProt P32245); format: functional, cell-based;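 note: Cell-based assay with luminescence read-out, confirmatory dose-response testing for agonist activity of biased ligands at MC4R; human U2OS cells with tagged receptor and beta-arrestin; potency of agonists that increase receptor coupling to beta-arrestin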
# [9] = target: T3, Heat shock factor protein 1 (Mus musculus, UniProt P38532); experiment: inhibition of MG132-induced HSE-luciferase signal, confirmation, cell-based, NIH3T3, luminescence, dose retest (AID 2382); format: functional;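 note: NIH3T3 fibroblasts with HSF1-driven luciferase reporter stressed by proteasome inhibitor MG132; luminescence from HSF1-driven luciferase expression after 8 hours of MG132 stress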
# T3 sequence (P38532 whole entry): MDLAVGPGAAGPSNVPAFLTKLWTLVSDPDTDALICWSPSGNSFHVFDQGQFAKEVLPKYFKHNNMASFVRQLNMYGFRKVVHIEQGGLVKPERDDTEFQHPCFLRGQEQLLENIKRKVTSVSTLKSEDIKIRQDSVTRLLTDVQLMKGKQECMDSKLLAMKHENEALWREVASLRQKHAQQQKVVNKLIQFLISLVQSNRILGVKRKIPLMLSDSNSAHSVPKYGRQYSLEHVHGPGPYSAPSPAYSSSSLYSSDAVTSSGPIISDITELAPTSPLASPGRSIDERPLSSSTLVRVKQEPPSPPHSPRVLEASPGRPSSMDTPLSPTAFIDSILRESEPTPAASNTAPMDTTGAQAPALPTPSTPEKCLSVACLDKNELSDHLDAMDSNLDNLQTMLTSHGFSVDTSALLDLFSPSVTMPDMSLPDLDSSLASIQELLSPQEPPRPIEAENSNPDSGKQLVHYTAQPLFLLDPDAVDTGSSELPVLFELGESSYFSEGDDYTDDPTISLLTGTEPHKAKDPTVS
# [10] = test system: H9c2; experiment: cells; format: functional, cell-based; details: Rattus norvegicus, H9c2, Myocardium;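 note: confirmatory concentration-response retest of ultra-high-throughput screening hits for modulation of myocardial damage; cell death induced by hydrogen peroxide oxidative stress; compound pretreatment for 60 min then peroxide exposure for 2 h; potency is for protecting the cells against peroxide damage rather than for killing them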
# [11] = target: Glyceraldehyde-3-phosphate dehydrogenase (Homo sapiens, UniProt P04406)
# [12] = target: T4, Alkaline phosphatase, tissue-nonspecific isozyme (Homo sapiens, UniProt P05186); experiment: human TNAP enzyme inhibitors, SAR follow-up, biochemical, luminescent, dose response (AID 1056)
# T4 sequence (P05186 whole entry): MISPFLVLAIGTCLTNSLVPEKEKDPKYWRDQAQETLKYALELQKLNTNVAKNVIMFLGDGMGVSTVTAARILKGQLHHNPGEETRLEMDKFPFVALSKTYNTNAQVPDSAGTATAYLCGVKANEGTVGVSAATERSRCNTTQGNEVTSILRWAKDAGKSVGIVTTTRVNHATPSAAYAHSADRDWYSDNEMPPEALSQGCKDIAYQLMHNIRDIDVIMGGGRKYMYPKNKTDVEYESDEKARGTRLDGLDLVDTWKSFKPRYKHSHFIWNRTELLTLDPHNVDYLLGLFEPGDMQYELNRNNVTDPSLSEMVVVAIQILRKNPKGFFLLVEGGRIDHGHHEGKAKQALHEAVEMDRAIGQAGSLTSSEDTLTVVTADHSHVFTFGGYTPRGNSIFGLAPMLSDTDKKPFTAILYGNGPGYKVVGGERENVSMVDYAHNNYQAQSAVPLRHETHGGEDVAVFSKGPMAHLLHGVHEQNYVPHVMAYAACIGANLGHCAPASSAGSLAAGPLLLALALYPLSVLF
# [13] = target: T5, Cytochrome P450 1A2 (Homo sapiens, UniProt P05177);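 note: PubChem cytochrome P450 panel assay, CYP1A2 panel member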
# T5 sequence (P05177 whole entry): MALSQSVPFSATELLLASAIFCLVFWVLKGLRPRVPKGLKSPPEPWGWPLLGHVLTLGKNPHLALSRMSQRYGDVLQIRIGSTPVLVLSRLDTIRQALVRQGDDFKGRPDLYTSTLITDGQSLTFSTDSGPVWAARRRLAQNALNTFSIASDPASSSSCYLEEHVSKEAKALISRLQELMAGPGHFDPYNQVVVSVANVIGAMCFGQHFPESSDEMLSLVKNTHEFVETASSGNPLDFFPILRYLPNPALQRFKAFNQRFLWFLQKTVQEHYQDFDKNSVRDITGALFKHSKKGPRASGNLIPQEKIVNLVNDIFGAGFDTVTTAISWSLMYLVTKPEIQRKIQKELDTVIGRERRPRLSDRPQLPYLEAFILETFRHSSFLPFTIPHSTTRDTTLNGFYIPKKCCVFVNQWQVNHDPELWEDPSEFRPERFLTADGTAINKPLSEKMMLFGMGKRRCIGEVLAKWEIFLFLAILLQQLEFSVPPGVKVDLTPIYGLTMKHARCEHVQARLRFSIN
# [14] = Luminescence Cell-Based Dose Retest to Confirm Inhibitors of Cancer Stem Cells. [Related pubchem assays (depositor defined):AID2717, AID2721]; format: functional; details: Homo sapiens
# [15] = target: Protein Wnt-3a (Mus musculus, UniProt P27467); experiment: Wnt3a-driven reporter signaling inhibition, dose response, selectivity assay for Gli-SUFU antagonist project, Wnt-LIGHT cells, luminescence (AID 651570); format: functional; details: read-out: IC50_Mean;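 note: Wnt-LIGHT reporter cells stimulated with conditioned medium from Wnt3a-producing cells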
# [16] = target: T6, RNA-binding protein pos-1 (Caenorhabditis elegans, UniProt G5EF15); experiment: inhibitors of POS-1/mex-3 RNA binding, dose response, biochemical, fluorescence polarization (AID 1964);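 note: purified POS-1 fused to maltose binding protein made in E. coli; potency of compounds blocking POS-1 binding to fluorescent RNA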
# T6 sequence (G5EF15 whole entry): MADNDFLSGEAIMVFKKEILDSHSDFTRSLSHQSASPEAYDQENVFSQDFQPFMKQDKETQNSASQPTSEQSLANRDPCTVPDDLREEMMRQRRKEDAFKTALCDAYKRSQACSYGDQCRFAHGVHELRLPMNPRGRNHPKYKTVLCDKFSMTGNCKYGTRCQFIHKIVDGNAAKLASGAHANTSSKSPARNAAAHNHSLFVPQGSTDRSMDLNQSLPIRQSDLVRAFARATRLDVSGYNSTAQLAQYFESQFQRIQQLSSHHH
# [17] = target: T7, Zinc finger protein mex-5 (Caenorhabditis elegans, UniProt Q9XUB2); experiment: MEX-5/TCR-2 RNA interaction inhibitors, dose response, biochemical, C. elegans, fluorescence polarization (AID 1960)
# T7 sequence (Q9XUB2 whole entry): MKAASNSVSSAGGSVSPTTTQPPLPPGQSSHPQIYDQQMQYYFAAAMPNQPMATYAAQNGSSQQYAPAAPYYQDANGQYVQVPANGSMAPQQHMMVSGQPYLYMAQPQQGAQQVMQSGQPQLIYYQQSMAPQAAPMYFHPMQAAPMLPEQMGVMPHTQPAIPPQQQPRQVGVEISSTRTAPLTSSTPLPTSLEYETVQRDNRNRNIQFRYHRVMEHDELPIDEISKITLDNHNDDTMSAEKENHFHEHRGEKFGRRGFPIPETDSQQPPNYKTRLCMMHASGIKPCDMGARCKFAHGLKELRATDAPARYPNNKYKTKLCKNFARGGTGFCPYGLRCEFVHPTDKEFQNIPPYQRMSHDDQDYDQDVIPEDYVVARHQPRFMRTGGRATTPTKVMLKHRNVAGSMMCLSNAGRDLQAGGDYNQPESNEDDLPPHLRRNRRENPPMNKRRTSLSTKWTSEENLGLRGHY
# [18] = target: T8, Protein skinhead-1 (Caenorhabditis elegans, UniProt P34707); format: functional
# T8 sequence (P34707 whole entry): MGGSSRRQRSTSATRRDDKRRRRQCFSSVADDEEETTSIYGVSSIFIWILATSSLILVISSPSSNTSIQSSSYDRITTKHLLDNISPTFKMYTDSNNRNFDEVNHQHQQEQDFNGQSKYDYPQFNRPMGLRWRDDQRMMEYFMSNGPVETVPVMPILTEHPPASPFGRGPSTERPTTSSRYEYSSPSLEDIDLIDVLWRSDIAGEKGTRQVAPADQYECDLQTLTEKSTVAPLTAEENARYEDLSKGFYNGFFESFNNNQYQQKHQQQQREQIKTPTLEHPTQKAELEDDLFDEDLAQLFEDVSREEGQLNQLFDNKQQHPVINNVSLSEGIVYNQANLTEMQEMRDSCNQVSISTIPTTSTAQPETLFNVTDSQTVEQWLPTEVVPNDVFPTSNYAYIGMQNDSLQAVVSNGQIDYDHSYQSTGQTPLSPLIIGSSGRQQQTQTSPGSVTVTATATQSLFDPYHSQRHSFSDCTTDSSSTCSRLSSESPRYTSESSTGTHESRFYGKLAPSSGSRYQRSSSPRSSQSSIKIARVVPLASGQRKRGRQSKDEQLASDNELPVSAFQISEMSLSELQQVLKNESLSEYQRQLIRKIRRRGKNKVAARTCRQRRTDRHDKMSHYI
# [19] = target: Eukaryotic translation initiation factor 4E (Mus musculus, UniProt P63073); experiment: eIF4E–eIF4G protein interaction inhibitors, dose response, biochemical, TR-FRET (AID 855); format: functional;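 note: potency for disrupting eIF4E binding to eIF4GI seen as loss of FRET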
# [20] = target: Cytochrome P450 2D6 (Homo sapiens, UniProt P10635);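 note: CYP2D6 member of a cytochrome P450 panel assay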
# Cytochrome P450 2D6, sequence (P10635 whole entry): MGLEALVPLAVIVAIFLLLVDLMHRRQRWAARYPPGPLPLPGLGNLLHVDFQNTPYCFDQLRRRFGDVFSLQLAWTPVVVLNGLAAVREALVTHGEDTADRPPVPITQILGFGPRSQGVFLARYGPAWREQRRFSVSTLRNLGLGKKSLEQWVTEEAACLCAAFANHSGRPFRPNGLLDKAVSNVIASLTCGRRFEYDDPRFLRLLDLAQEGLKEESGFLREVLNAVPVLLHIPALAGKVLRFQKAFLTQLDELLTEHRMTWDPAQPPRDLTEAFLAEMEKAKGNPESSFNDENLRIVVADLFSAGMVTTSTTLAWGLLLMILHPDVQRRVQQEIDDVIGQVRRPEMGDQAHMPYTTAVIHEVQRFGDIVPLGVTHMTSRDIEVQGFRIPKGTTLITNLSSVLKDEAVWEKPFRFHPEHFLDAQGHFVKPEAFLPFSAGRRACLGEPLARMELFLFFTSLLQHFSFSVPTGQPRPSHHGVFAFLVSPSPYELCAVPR
# Cytochrome P450 3A4, sequence (P08684 whole entry): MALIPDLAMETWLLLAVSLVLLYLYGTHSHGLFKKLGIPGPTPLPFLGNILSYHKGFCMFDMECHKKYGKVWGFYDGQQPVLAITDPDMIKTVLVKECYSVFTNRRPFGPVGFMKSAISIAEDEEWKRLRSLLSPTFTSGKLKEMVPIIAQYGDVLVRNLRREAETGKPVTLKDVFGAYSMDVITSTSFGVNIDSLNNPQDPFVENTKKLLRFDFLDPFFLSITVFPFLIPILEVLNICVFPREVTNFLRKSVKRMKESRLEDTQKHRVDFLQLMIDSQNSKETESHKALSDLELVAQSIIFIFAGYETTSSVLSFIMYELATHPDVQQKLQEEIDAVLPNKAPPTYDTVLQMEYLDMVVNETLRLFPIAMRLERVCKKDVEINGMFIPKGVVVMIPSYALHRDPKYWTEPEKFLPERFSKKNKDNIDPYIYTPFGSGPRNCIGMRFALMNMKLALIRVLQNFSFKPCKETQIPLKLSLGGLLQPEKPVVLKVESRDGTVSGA
# Melanocortin receptor 4, sequence (P32245 whole entry): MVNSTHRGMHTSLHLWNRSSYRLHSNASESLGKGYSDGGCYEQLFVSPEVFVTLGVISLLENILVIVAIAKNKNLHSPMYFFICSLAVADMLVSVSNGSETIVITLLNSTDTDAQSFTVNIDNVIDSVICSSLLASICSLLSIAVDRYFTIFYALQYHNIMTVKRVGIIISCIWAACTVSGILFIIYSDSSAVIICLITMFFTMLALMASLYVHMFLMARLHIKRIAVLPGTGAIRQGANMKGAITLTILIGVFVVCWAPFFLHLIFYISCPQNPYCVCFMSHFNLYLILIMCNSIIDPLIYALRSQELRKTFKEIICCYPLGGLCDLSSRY
# Glyceraldehyde-3-phosphate dehydrogenase, sequence (P04406 whole entry): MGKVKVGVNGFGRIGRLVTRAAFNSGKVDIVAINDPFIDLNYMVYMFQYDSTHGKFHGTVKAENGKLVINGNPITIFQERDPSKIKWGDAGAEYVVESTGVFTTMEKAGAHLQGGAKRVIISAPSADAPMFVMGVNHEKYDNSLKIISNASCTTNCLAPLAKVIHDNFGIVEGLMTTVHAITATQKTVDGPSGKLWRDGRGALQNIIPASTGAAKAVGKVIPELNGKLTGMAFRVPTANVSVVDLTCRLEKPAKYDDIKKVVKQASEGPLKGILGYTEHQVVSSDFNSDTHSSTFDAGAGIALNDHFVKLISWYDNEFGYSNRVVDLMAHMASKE
# Cytochrome P450 2C9, sequence (P11712 whole entry): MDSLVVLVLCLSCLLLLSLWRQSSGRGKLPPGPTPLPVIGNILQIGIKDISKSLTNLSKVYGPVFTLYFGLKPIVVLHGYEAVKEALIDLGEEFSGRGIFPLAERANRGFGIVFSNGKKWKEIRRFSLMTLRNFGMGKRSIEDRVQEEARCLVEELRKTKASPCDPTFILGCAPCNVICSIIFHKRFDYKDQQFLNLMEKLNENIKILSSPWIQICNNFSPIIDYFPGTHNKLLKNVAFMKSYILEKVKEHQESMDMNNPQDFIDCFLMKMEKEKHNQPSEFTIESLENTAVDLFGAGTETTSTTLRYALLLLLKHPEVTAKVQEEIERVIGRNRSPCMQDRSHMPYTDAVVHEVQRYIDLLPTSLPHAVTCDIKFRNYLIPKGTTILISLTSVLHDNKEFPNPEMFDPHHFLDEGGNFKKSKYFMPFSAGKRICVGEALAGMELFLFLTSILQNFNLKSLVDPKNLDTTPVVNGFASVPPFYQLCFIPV
# Eukaryotic translation initiation factor 4E, sequence (P63073 whole entry): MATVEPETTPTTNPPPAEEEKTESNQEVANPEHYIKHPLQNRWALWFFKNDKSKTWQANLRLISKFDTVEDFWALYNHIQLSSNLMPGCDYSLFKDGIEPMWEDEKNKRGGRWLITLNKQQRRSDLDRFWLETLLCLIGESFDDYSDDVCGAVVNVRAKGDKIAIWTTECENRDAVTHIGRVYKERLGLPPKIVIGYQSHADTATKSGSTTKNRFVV
# Protein Wnt-3a, sequence (P27467 whole entry, the tested form may be a part): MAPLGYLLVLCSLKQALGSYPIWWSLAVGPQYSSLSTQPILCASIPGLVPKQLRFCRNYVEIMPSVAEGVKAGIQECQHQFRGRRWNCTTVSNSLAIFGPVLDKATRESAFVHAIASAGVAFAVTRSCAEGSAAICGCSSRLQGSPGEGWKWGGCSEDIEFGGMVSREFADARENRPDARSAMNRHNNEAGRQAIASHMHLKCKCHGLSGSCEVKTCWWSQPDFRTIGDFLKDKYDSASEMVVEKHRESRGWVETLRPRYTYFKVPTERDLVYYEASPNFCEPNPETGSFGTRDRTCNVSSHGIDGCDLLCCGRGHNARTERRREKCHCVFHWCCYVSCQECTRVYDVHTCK
structure (smiles),measurement,setting,value
O=C(O)CC1(CC(=O)NCc2ccncc2)CCCCC1,IC50,[1],> 50 µM (inactive)
C/C=C1\C(=O)C[C@@H]2[C@@H]3CCC4=CC(=O)CC[C@@]4(C)[C@H]3CC[C@@]12C,AC50,[2],39.8 µM (inconclusive)
same,AC50,[3],inconclusive
CC(=O)c1cc2c(C)c(C(=O)c3ccccc3)oc2cc1O,EC50,[4],> 99 µM (inactive)
same,EC50,[5],> 99 µM (inactive)
CCOC(=O)c1ccc2c(c1)nc(C1CCN(S(=O)(=O)c3cccs3)CC1)n2CC,IC50,[1],> 50 µM (inactive)
Cc1ccc(-c2nnc(-c3ccc(NC(=O)Cc4cccs4)cc3)o2)cc1,EC50,[6],5.97 µM (active)
same,EC50,[7],4.87 µM (active)
same,EC50,[8],> 89.2 µM (inactive)
Cc1cc(O)c(/C=N/c2ccc(N3CCOCC3)cc2)c(C)c1Cl,EC50,[9],> 195 µM (not active)
same,EC50,[4],53.5 µM (inactive)
same,IC50,[10],> 79 µM (inactive)
same,EC50,[5],> 99 µM (inactive)
Cc1ccc(-c2cc(C(=O)O)[nH]n2)c(C)c1,IC50,[11],> 100 µM (not active)
same,IC50,[12],3.34 µM (active)
COCCNc1cc(-c2ccccc2C(F)(F)F)ncn1,AC50,[13],15.8 µM (inconclusive)
same,AC50,[3],inconclusive
O=S(=O)(NCc1ccncc1)c1ccc(S(=O)(=O)NCC2CCCO2)cc1 (configuration not stated),AC50,[14],0.973 µM (active)
same,IC50,[15],7.09 µM (active)
O=C(c1ccc(Cl)cc1)N1CCN(C(=O)c2ccco2)CC1,AC50,[3],inconclusive
O=S(=O)(Nc1ccc2ncccc2c1)c1cc(Cl)ccc1Cl,IC50,[11],> 100 µM (not active)
same,IC50,[12],> 100 µM (inactive)
CCOC(=O)Cc1csc(NC(=O)c2sc3nc4cc(C)ccc4cc3c2N)n1,EC50,[16],27.2 µM (inconclusive)
same,EC50,[17],1.62 µM (inconclusive)
same,EC50,[8],> 89.2 µM (inactive)
COc1ccccc1C(=O)Nc1ccc2ccccc2c1,IC50,[11],> 10 µM (inconclusive)
same,IC50,[12],> 10 µM (inactive)
same,IC50,[18],42.7 µM (active)
CC(=O)CC(=O)[C@@]1(O)CC[C@@H]2[C@@H]3C=C(C)C4=CC(=O)CC[C@@H]4[C@H]3CC[C@]21C,AC50,[2],12.6 µM (inconclusive)
same,AC50,[3],inconclusive
COc1ccc(C2c3cc(OC)c(OC)cc3CCN2S(C)(=O)=O)cc1OC (configuration not stated),EC50,[16],> 300 µM (not active)
same,EC50,[17],> 300 µM (not active)
same,IC50,[19],50 µM (inactive)
same,IC50,[1],> 50 µM (inactive)
NC1=Nc2ccccc2Oc2ccccc21,AC50,[20],20 µM (inconclusive)
same,AC50,[3],inconclusive
CCN(CC)S(=O)(=O)c1ccc(Cl)c(NC(=O)c2cc(Cl)ccc2Cl)c1,EC50,[4],> 99 µM (inactive)
same,EC50,[5],> 99 µM (inactive)
CCOC(=O)c1cc(-c2ccc(Cl)cc2)n[nH]1,IC50,[11],> 100 µM (not active)
same,IC50,[12],2.35 µM (active)
CC(=O)Nc1cc(-c2ccccc2N(C)C)cn2c(-c3ccccc3)cnc12,EC50,[8],> 89.2 µM (inactive)
Cc1cc(C)n(/N=C/c2ccccc2)c(=O)c1C#N,IC50,[1],> 50 µM (inactive)
